One test concerns the target T1, Adenosylhomocysteinase (Rattus norvegicus, UniProt P10760).
T1 sequence (P10760 whole entry): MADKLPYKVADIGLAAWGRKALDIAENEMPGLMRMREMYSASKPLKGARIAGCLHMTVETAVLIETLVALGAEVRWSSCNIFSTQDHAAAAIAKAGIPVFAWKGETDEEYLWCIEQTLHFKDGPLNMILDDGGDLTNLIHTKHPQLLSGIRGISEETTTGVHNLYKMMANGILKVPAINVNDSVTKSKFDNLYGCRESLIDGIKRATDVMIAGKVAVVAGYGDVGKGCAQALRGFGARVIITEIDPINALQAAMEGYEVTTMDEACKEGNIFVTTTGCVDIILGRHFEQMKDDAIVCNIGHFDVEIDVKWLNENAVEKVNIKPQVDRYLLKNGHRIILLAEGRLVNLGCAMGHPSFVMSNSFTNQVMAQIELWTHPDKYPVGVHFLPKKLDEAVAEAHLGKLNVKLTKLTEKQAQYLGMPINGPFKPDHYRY
Put plainly: Tested for binding affinity of compound against S-adenosyl-L-homocysteine hydrolase.

For test [1], the system named is T-cell. Description: Inhibition of T cell proliferation was determined using murine splenic mononuclear cells. Particulars: Mus musculus. The class given is functional, cell-based.
For test [2], the system named is T-cell. Description: Tested for inhibition of T cell proliferation. The class given is functional, cell-based. Particulars: Mus musculus.
Test [3] deals with T2, Adenosylhomocysteinase (Rattus norvegicus) (UniProt P10760).
T2 sequence (whole entry): T1 sequence (P10760 whole entry)
Description: Tested for rate constant for inactivation of S-adenosyl-L-homocysteine hydrolase from rat

This note sets out measurements from ChEMBL document CHEMBL1127177, “(E) and (Z)5-fluoro olefin carbocyclic nucleosides: effect of olefin geometry on inhibition of s-adenosyl-l-homocysteine hydrolase” (Bioorg Med Chem Lett, 1993).

On to `Nc1ncnc2c1ncn2C1C/C(=C/F)C(O)C1O` (stereo not given), for which the Ki (as a rule, a measure of affinity in units of concentration, obtained from inhibition or displacement) at Adenosylhomocysteinase amounted to 1.1 µM. The IC50 (usually the point on the concentration scale where inhibition reaches its midpoint) in the test with T-cell [1] amounted to 6.7 µM.

At Adenosylhomocysteinase, `Nc1ncnc2c1ncn2C1C/C(=C\F)C(O)C1O` (stereo not given) had a Ki of 6.9 µM. The molecule also returned a 50% inhibitory concentration (IC50) in the test with T-cell [2] of 0.8 µM. This molecule registered a K inact in test [3] of 0.18 min⁻¹.
